{"source": "patent US10632121B2", "about": "“Platelet-derived growth factor receptor mutations and compositions and methods relating thereto” (MEMORIAL SLOAN KETTERING CANCER CENTER, priority 2014, dated 2020)", "key": {"PI3Kβ": {"molecular_target": "PI3Kβ (Homo sapiens, UniProt P42338)", "sequence (P42338 whole entry)": "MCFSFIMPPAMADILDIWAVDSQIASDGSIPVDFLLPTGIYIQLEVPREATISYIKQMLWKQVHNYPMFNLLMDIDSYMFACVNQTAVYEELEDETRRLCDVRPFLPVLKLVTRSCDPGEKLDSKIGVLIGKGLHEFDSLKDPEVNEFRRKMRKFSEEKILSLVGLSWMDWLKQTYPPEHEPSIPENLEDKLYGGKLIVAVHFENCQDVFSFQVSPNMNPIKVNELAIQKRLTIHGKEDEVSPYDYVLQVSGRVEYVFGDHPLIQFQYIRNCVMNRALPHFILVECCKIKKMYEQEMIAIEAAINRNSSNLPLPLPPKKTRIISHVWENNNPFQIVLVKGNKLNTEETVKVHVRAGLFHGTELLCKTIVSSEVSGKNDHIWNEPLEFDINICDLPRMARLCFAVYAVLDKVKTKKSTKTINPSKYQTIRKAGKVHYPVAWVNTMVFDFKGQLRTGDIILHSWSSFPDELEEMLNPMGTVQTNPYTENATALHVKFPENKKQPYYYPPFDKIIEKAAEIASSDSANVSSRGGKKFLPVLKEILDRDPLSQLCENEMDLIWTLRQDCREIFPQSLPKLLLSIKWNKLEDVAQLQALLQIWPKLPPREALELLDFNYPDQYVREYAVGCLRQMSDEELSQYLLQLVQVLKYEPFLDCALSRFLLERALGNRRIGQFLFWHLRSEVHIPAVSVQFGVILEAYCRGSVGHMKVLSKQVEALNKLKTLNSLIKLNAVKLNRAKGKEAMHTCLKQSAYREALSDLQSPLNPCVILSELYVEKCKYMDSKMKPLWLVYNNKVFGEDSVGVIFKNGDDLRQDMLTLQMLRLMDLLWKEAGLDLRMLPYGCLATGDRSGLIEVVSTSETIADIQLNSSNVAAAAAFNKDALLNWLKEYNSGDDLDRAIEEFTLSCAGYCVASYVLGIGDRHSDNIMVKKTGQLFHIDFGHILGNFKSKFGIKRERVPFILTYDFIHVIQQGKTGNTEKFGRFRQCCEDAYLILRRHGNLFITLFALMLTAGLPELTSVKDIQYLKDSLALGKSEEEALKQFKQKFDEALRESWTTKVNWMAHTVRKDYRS", "sequence (P27986 whole entry partner)": "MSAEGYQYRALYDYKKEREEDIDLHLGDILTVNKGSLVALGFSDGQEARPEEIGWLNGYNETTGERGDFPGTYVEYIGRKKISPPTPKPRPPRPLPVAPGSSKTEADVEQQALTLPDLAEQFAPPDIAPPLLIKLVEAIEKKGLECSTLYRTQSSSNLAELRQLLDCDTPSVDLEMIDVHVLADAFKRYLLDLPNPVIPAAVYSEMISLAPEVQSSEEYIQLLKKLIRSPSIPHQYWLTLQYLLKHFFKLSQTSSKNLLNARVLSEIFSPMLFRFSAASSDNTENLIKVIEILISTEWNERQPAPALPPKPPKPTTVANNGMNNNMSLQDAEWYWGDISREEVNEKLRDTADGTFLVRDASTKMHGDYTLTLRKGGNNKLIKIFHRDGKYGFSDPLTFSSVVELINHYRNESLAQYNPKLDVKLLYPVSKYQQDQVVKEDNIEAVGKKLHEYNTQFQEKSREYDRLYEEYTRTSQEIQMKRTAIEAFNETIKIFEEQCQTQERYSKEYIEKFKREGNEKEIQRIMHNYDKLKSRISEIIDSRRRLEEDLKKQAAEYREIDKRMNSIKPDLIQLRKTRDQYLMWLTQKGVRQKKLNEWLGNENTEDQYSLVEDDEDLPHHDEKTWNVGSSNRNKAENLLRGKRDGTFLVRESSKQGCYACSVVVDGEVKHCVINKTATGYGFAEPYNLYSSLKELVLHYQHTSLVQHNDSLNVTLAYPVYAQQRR", "details": "cited from earlier work"}, "PI3Kδ": {"molecular_target": "PI3Kδ (Homo sapiens, UniProt O00329)", "sequence (O00329 whole entry)": "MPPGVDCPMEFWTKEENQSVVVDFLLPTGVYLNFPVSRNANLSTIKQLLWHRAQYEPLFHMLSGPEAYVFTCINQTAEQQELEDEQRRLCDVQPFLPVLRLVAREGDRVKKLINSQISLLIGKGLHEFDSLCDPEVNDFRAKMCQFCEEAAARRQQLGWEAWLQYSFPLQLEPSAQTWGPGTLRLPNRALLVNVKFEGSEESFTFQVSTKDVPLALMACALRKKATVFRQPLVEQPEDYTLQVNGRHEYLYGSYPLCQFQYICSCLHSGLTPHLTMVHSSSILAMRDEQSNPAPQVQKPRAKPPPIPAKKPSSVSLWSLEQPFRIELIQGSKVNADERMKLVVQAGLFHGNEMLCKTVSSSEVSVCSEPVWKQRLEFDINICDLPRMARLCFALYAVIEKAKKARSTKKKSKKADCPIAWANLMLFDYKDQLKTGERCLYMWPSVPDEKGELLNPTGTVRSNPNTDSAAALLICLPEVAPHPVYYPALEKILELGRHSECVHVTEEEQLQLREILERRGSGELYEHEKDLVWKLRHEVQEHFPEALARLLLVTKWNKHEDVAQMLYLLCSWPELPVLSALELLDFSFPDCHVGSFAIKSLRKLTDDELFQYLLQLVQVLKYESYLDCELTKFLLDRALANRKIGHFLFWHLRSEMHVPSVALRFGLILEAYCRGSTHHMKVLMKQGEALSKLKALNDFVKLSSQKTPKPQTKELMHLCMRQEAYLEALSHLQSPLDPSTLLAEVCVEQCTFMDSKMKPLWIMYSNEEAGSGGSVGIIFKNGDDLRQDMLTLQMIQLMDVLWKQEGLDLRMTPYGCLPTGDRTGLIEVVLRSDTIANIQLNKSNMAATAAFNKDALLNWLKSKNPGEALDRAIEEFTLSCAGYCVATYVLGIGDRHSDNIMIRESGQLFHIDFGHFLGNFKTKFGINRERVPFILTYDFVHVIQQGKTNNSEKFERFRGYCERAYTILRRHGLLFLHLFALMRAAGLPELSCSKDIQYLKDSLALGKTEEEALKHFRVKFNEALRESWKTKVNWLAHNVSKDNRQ", "sequence (P27986 whole entry partner)": "as the sequence (P27986 whole entry partner) above", "details": "cited from earlier work"}, "glioblastoma tumor cells": {"test_system": "glioblastoma tumor cells", "test": "Clinical trial: Ki-67 IHC tumor cell proliferation", "type": "in vivo, human", "protocol": "The design of the trial allowed comparison of the initial glioma (Surgery 1) in these patients to the recurrent glioma which was treated with drug before surgical resection (Surgery 2). Immunohistochemical staining (IHC) was performed on the samples and pathway inhibition was measured via pS6 Ser235/6, pS6K1 Thr389, p4E-BP1 Thr37/46, and pPRAS40 Thr246 (FIG. 1E, upper panel). Cellular proliferation was measured via Ki-67 IHC. These IHC measurements were compared to one another and reported as a percentage decrease or increase of Surgery2/Surgery 1. Samples which had reduction of all four phospho-protein measurements in Surgery 2 also had the greatest relative decreases in cellular proliferation (FIG. 1E, lower panel). Samples which had no inhibition of any pharmacodynamic biomarker or inhibition of only one pharmacodynamic biomarker were most likely to see a relative increase in proliferation.\nTo compare the relative change in cellular proliferation in the three drug arms and a drug naïve population, a control population was formed of patients who had not been treated with any PI3K inhibitor and surgical samples available from two surgical resections and compared their relative proliferation via Ki-67 IHC (FIG. 12A). This control group was compared with the three arms of the trial. […] There was no statistically significant change in proliferation between the control group and the other arms of the trial.\nTo determine the Ki-67 labeling index, slides were analyzed as with the phospho-proteins, and the number of positively stained and total number of cells was determined for each image. The percentage of Ki-67 positive cells was calculated for each image, then the three images were averaged."}, "clinical": {"test": "clinical", "details": "human, in vivo, 90 mg"}, "TS543 cells": {"test_system": "TS543 cells", "test": "TS543 subcutaneous tumor model in SCID mice", "type": "in vivo, mouse", "details": "60 mg/kg/day, p=0.0139 vs vehicle", "protocol": "To confirm the in vitro observations described above in vivo, one million TS543 cells were injected into the flank of a severe combined immune deficiency (SCID) mouse. Once tumors had formed, the mice were randomized into vehicle or 60 mg/kg/day SAR245409 treatment arms. Tumors were measured every three days. […] This reduction was statistically significant (unpaired t test with Welch's correction, p=0.0139).\nFor the S5472 and TS543 subcutaneous model, 10e6 cells were suspended in a 100 uL mixture of 50% growth media 50% Matrigel (BD 356237). SCID mice were injected subcutaneously in the flank, and once tumors had reached a measurable size, mice were randomized into treatment groups."}, "[1]": {"test_system": "EGFR mutant GBM cells (SF-268, KNS-81-FD)", "test": "Cell viability, EGFR mutant GBM cells", "type": "cell-based, human", "details": "SF-268 (EGFR A289V), KNS-81-FD (EGFR G598V), five day treatment", "protocol": "Growth assays performed on adherent cell lines were trypsanized, counted, and plated into 6 cm dishes. The next day media was removed, and replaced with reduced serum media (5% FBS) with drug or vehicle in triplicate for each concentration. After five days in culture, cells were analyzed in the same manner as non-adherent lines.\nSAR408 and SAR409 were provided by Sanofi. […] Antibodies for western blots were from Cell Signaling Technology with the following exceptions: actin (Sigma), total PDGFRA (Santa Cruz), and V5 epitope (Invitrogen). Western Blots were performed after four hours of drug treatment unless indicated otherwise. Electroluminescence was used to quantify phosphorylation of Akt and S6 ribosomal protein (FIG. 1B) (Meso Scale Discovery cat # K15100D-1 and cat # K150DGD-1). Cell Proliferation and Viability Assays were performed using a Beckman Coulter Vi-Cell XR Cell Viability Analyzer after five days of drug treatment unless indicated otherwise."}, "PI3K/mTOR pathway": {"test_system": "PI3K/mTOR pathway", "test": "Clinical trial: IHC of PI3K/mTOR pathway markers in GBM tumor tissue", "type": "in vivo, human", "protocol": "To evaluate pharmacodynamic effects in tumor tissue, immuno-histochemistry (IHC) was performed with phosphorylation-site specific antibodies against four PI3K/mTOR pathway components: Proline-Rich Akt Substrate of 40-kDa (PRAS40, threonine246), ribosomal protein S6 kinase 1 (S6K1, threonine 389), eukaryotic translation initiation factor 4E-binding protein 1 (4E-BP1, threonine 37/46), and S6 Ribosomal Protein (S6RP, serine 235/236) (FIG. 1D). For each marker staining of several thousand tumor cells was quantified and the staining intensity in the “on-treatment”-biopsy (Surgery 2) was compared with the staining intensity in the tumor sample collected from the same patient at diagnosis (Surgery 1). This “matched-pair” analysis included 19/21 evaluable patients (Table 3) who received at least one dose of study drug, had detectable phospho-S6RP in the pre-treatment sample (Surgery 1), and had tissue of sufficient quality collected on treatment (Surgery 2).\nThe design of the trial allowed comparison of the initial glioma (Surgery 1) in these patients to the recurrent glioma which was treated with drug before surgical resection (Surgery 2). Immunohistochemical staining (IHC) was performed on the samples and pathway inhibition was measured via pS6 Ser235/6, pS6K1 Thr389, p4E-BP1 Thr37/46, and pPRAS40 Thr246 (FIG. 1E, upper panel). Cellular proliferation was measured via Ki-67 IHC. […]\nImmunohistochemical (IHC) staining of patient samples was performed on formalin-fixed paraffin-embedded (FFPE) tumor tissues collected at the initial surgery and recurrent tumor surgery. […] Immunoreactivity was detected using NovaRED Peroxidase Substrate kit (Vector Labs SK-4800) and sections were counterstained with hematoxylin.\nTo analyze pathway inhibition, three representative tumor images from each slide stained with phospho-proteins were taken, after determining the presence of tumor cells based on hematoxylin staining evaluation. […] The tumor to normal ratio was calculated by dividing the average of the tumor images by the average of the normal tissue image. […]"}, "PDGF-B-induced gliomas": {"test_system": "PDGF-B-induced gliomas", "details": "60 mg/kg/day, ten days, p=0.006 vs vehicle"}, "[2]": {"details": "patients treated 10-28 days before surgery"}}, "note": "“Also recorded” adds a separate entry of the source. Where two headings read alike, the source gives them in different places.", "data": [{"smiles": "CCn1c(=O)c(-c2cc[nH]n2)cc2c(C)nc(N)nc21", "note": "[SAR409, voxtalisib]", "values": [{"measurement": "IC50", "setting": "PI3Kβ", "result": 128, "unit": "nM"}, {"measurement": "IC50", "setting": "PI3Kδ", "result": 91, "unit": "nM"}, {"measurement": "change in proliferation (Ki-67) compared to untreated control population", "setting": "glioblastoma tumor cells; 50 mg/BID SAR245409 arm", "result": "not significantly different"}, {"measurement": "change in proliferation (Ki-67) compared to untreated control population", "setting": "glioblastoma tumor cells; 90 mg/QD SAR245409 arm, p=0.009", "result": "statically significant decrease; also recorded: statistically significantly reduced"}, {"measurement": "cellular proliferation in tumor, Surgery 2 vs Surgery 1", "setting": "glioblastoma tumor cells; [2]", "result": "Reduced Cellular Proliferation"}, {"measurement": "Cmax at 3 h", "setting": "clinical; median intratumoral Cmax concentration", "result": 170, "unit": "nM"}, {"measurement": "Cmax at 3 h", "setting": "clinical; range of intratumoral Cmax concentration", "result": "23.1 to 751", "unit": "nM"}, {"measurement": "tumor growth (tumor volume)", "setting": "TS543 cells", "result": "marked reduction in tumor growth"}, {"measurement": "cell death (% Trypan blue positive cells)", "setting": "[1]", "result": "failed to induce cell death"}, {"measurement": "cell death (% Trypan blue positive cells)", "setting": "[1]; listed as SAR245409", "result": "robust induction of cell death was only detected in the BT474 line"}, {"measurement": "tumor cell proliferation and all four PI3K/mTOR pathway markers in on-treatment biopsy", "setting": "PI3K/mTOR pathway; patient #2021, Surgery 2", "result": "decrease"}, {"measurement": "PI3K/mTOR pathway inhibition in tumor, Surgery 2 vs Surgery 1", "setting": "PI3K/mTOR pathway; [2]", "result": "Inhibition of the PI3K/mTOR Pathway"}, {"measurement": "fold change in tumor size (MRI) between start and end of treatment", "setting": "PDGF-B-induced gliomas", "result": "grew markedly slower"}, {"measurement": "fold change in tumor size (MRI) between start and end of treatment", "setting": "PDGF-B-induced gliomas; listed as SAR245409", "result": "statistically significantly smaller"}]}]}
